These results are taken from patent publication US20060211887A1, “Phosphate salts of 6-dimethylaminomethyl-1-(3-methoxyphenyl)-1,3-dihydroxy-cyclohexane compounds” (priority 2005, published 2006).

Molecules are shown by their SMILES.

A short description of the series: Storage at defined relative atmospheric humidity (approx. 75% or 95%, then approx. 4%) with thermogravimetric analysis, weighing and X-ray powder diffractometry. It is filed as physicochemical. As to conditions: for % pt during / % pt after / % pt (middle): vs before storage; for Form during / Form after / Form middle: X-ray powder diffractometry; for Laboratory after: storage step approx. 4 (±5) % r.h. approx. 20 h; for Laboratory during %: storage step approx. 75 (±5) % r.h. approx. 7 days; for Laboratory during: storage step approx. 95 (±5) % r.h. approx. 7 days. The source says:
Storage of the hydrochloride salts, which are not according to the invention (identified H1 to H3 in the following examples of compounds; for the synthesis see the subsequent experimental part), at room temperature over saturated sodium chloride solution results in a relative atmospheric humidity of approx. 75% (±5%). Storage of the samples at room temperature over saturated potassium sulfate solution results in a relative atmospheric humidity of approx. 95% (±5%).
Storage of the samples at room temperature over drying beads (blau+, Engelhardt, Nienburg) results in a relative atmospheric humidity of approx. 4% (±5%).
The samples were stored at approx. 75% relative atmospheric humidity for approx. 8.5 days. The samples were then stored at a relative atmospheric humidity of approx. 4% for a further approx. 6 h.
They were analyzed for their loss in weight by means of thermogravimetric analyses (amount of sample approx. 5-20 mg, heating rate approx. 10 K/min, heating range from approx. 25° C. to approx. 240° C.).
The approximate difference in the moisture content (in percentage points; % pt) from after the storage to before the particular storage step is stated.
In addition, the percentage change in the total weight of the sample occurring in the respective storage step was determined by weighing (“laboratory”).
The crystalline form was determined by means of X-ray powder diffractometry.
The samples were stored at approx. 95% relative atmospheric humidity for approx. 8.5 days. The samples were then stored at a relative atmospheric humidity of approx. 4% for a further approx. 6 h.
The approximate difference in the moisture content (in percentage points; % pt) from after the storage to before the storage is stated.
The samples were stored at approx. 75% relative atmospheric humidity for approx. 7 days. The samples were then stored at a relative atmospheric humidity of approx. 4% for a further approx. 2.5 days.
The approximate difference in the moisture content (in percentage points; % pt) from after the storage step to before the storage is stated.
The samples were stored at approx. 95% relative atmospheric humidity for approx. 7 days. The samples were then stored at a relative atmospheric humidity of approx. 4% for a further approx. 7 days.
Storage of the phosphate salts I-P according to the invention, called samples in the following, at room temperature over saturated sodium chloride solution results in a relative atmospheric humidity of approx. 75 (±5) % . Storage of the samples at room temperature over saturated potassium sulfate solution results in a relative atmospheric humidity of approx. 95 (±5) %.
Storage of the samples at room temperature over drying beads (blau+, Engelhardt, Nienburg) results in a relative atmospheric humidity of approx. 4 (±5) %.
The samples were stored at approx. 75 (±5) % relative atmospheric humidity for approx. 8.5 days. The samples were then stored at a relative atmospheric humidity of approx. 4 (±5) % for a further approx. 6 h.
The samples were stored at approx. 95 (±5) % relative atmospheric humidity for approx. 8.5 days. The samples were then stored at a relative atmospheric humidity of approx. 4 (±5) % for a further approx. 6 h.
The samples were stored at approx. 75 (±5) % relative atmospheric humidity for approx. 7 days. The samples were then stored at a relative atmospheric humidity of approx. 4 (±5) % for a further approx. 20 h.
The samples were stored at approx. 95 (±5) % relative atmospheric humidity for approx. 7 days. The samples were then stored at a relative atmospheric humidity of approx. 4 (±5) % for a further approx. 20 h.
Sample P3 was kept in the laboratory for approx. 55 minutes under ambient conditions before the second storage step.
The interpretation of the specified data is explained again in more detail by the example of the data for P1 given in the preceding Table 8:
Storage of 1: • first storage step: 95% atmospheric humidity • second storage step: 4% atmospheric humidity […]

[1] abbreviates: after approx. 75 (±5) % r.h. approx. 7 days.
Setting [2] is: after approx. 95 (±5) % r.h. approx. 7 days.
[3] abbreviates: approx. 75 (±5) % r.h. approx. 7 days, then approx. 4 (±5) % approx. 20 h.
The mark [4] stands for this setting: approx. 75 (±5) % r.h. approx. 8.5 days, then approx. 4 (±5) % approx. 6 h.
The mark [5] stands for this setting: approx. 95 (±5) % r.h. approx. 7 days, then approx. 4 (±5) % approx. 20 h.
The mark [6] stands for this setting: approx. 95 (±5) % r.h. approx. 8.5 days, then approx. 4 (±5) % approx. 6 h.
Setting [7] is: after approx. 75% r.h. approx. 7 days.
Setting [8] is: after approx. 95% r.h. approx. 7 days.
The mark [9] stands for this setting: approx. 75% r.h. approx. 7 days, then approx. 4% approx. 2.5 days.
Setting [10] is: approx. 95% r.h. approx. 7 days, then approx. 4% approx. 7 days.
Where [11] appears, read: approx. 75% r.h. approx. 8.5 days, then approx. 4% approx. 6 h.
[12] abbreviates: approx. 95% r.h. approx. 8.5 days, then approx. 4% approx. 6 h.

As to `COc1cccc([C@@]2(O)C[C@H](O)CC[C@@H]2CN(C)C)c1` (racemic) [Sample P1, (1RS,3RS,6RS)-6-dimethylaminomethyl-1-(3-methoxyphenyl)-cyclohexane-1,3-diol], the Laboratory during % is recorded as −0.08%. Besides, under setting [1], the “% pt during” value is −0.21 % pt and the Form during entry is “form A”. For the same compound, under setting [2], the “% pt during” value is reported as −0.19 % pt and the Form during entry is listed as “form A”. Also, the “Weight loss TG (afterwards)” value (after second storage step at ca. 4% atmospheric humidity) was −4.38%. The “Weight loss TG (intermediate)” value (after storage at 95% atmospheric humidity approx. 7 days) was −4.55%. Besides, under setting [3], the “% pt after” value was −0.04 % pt and the Form after result is “form A”. In addition, under setting [4], the “% pt” value was −0.05 % pt, the “Laboratory (percentage change in total weight by weighing)” value is recorded as −0.01% and the Form after entry is listed as “form A”. For the same compound, under setting [5], the “% pt after” value is listed as −0.02 % pt and the Form after result was “form A”. Further, under setting [6], the “% pt” value is reported as −0.22 % pt, the “Laboratory (percentage change in total weight by weighing)” value is recorded as “+0.12%” and the Form after entry is listed as “form A”. Also, the “Weight loss TG (beforehand)” value (before storage, thermogravimetry approx. 25-240° C.) was −4.36%. Where the note is “after 75% r.h. 7 days”, the Laboratory after entry was “+0.07%”. For the same compound, the Laboratory after (after 95% r.h. 7 days) is −0.04%.

As for `COc1cccc([C@@]2(O)C[C@H](O)CC[C@@H]2CN(C)C)c1` (racemic) [Sample P3, (1RS,3RS,6RS)-6-dimethylaminomethyl-1-(3-methoxyphenyl)-cyclohexane-1,3-diol], the Laboratory during % result is given as “+0.23%” and the Laboratory during was found to be 5.33%. Moreover, under setting [1], the “% pt during” value is on record as −0.25 % pt and the Form during entry was “form A”. In addition, under setting [2], the “% pt during” value was “+0.21 % pt” and the Form during result was “form A”. Besides, under setting [3], the “% pt after” value is −0.33 % pt and the Form after entry was “form A”. Further, under setting [4], the “% pt” value is reported as −0.24 % pt, the “Laboratory (percentage change in total weight by weighing)” value is on record as −0.47% and the Form after result is recorded as “form A”. Further, under setting [5], the “% pt after” value is listed as “+0.27 % pt” and the Form after result was “form A”. Also, under setting [6], the “% pt” value is recorded as −0.25 % pt, the “Laboratory (percentage change in total weight by weighing)” value is −0.39% and the Form after entry was “form A”. Also, the Laboratory after (after 75% r.h. 7 days) is −0.75%. Further, the Laboratory after (after 95% r.h. 7 days) was −0.04%.

`COc1cccc([C@@]2(O)C[C@H](O)CC[C@@H]2CN(C)C)c1` (racemic) [Sample P2, (1RS,3RS,6RS)-6-dimethylaminomethyl-1-(3-methoxyphenyl)-cyclohexane-1,3-diol]: the Laboratory during % result is reported as “+0.02%” and the Laboratory during result is “+0.52%”. Also, under setting [1], the “% pt during” value was −0.42 % pt and the Form during result is recorded as “form A”. Also, under setting [2], the “% pt during” value is on record as −0.24 % pt and the Form during result is given as “form A”. Moreover, under setting [3], the “% pt after” value is given as −0.44 % pt and the Form after result is reported as “form A”. Moreover, under setting [4], the “% pt” value is reported as −0.17 % pt, the “Laboratory (percentage change in total weight by weighing)” value is listed as “+0.06%” and the Form after entry is reported as “form A”. In addition, under setting [5], the “% pt after” value is given as −0.21 % pt and the Form after result is recorded as “form A”. Moreover, under setting [6], the “% pt” value is −0.25 % pt, the “Laboratory (percentage change in total weight by weighing)” value was “+0.02%” and the Form after result was “form A”. Moreover, where the note is “after 75% r.h. 7 days”, the Laboratory after entry was “+0.08%”. For the setting “after 95% r.h. 7 days”, the Laboratory after is given as −0.60%.

In the case of `COc1cccc(C2(O)CC(O)CCC2CN(C)C)c1` (centres unmarked) [Sample H3, 6-dimethylaminomethyl-1-(3-methoxyphenyl)-1,3-dihydroxy-cyclohexane], the “% pt (middle)” value reads like this: under setting [7], −4.75 % pt; under setting [8], −2.37 % pt. Also, the Form middle result under setting [7] was “form B” and the Form middle result under setting [8] is “form B”. Further, the “% pt after” value under setting [9] was found to be 0.46 % pt and the “% pt after” value under setting [10] is −0.49 % pt. The Form after entry under setting [9] was “form B” and the Form after entry under setting [10] is recorded as “form B”. The “Laboratory/% (after)” value by setting is: (storage step approx. 4% r.h. approx. 2.5 days, after 75% r.h. 7 days) “+3.68%”; (storage step approx. 4% r.h. approx. 7 days, after 95% r.h. 7 days) −9.19%. Besides, the “Laboratory/% (middle)” value was “+0.02%” (storage step approx. 75% r.h. approx. 7 days) and “+4.34%” (storage step approx. 95% r.h. approx. 7 days).

Turning to `COc1cccc(C2(O)CC(O)CCC2CN(C)C)c1` (centres unmarked) [Sample H2, 6-dimethylaminomethyl-1-(3-methoxyphenyl)-1,3-dihydroxy-cyclohexane], under setting [11], the “% pt (difference in the moisture content, thermogravimetry, after vs before storage)” value is recorded as −2.85 % pt and the “Laboratory/% (percentage change in total weight by weighing)” value is reported as “+2.61%”. Moreover, the Form after result (approx. 75% relative atmospheric humidity approx. 8.5 days, then approx. 4% approx. 6 h) was “form B, further”. Further, under setting [12], the “% pt (difference in the moisture content, thermogravimetry)” value is −4.95 % pt; the “Laboratory/% (percentage change in total weight by weighing)” value is listed as “+4.88%”; the Form after result is listed as “form B, further”.
